From ChEMBL document CHEMBL6074653, “Reversal of insulin resistance to combat type 2 diabetes mellitus by newer thiazolidinedione's in fructose induced insulin resistant rats” (Eur J Med Chem, 2024)
The source made the active and inactive calls. No cut-off for these calls is given here.

How the values were obtained:
Rattus norvegicus [1] = experiment: Anti-diabetic activity in Wistar rat Diaphragm assessed as […] at 10 mg/kg, po administered for 15 days; format: functional, organism-based; conditions: time 15.0 day
[2] = AUC (0 to t) in male Wistar rat at 10 mg/kg, po measured upto 24 hrs; format: ADME, organism-based; conditions: in vivo
Rattus norvegicus [3] = experiment: Anti-diabetic activity in fructose-treated male Wistar rat assessed as increase in CAT level in liver at 10 mg/kg, po administered for 15 days (reference value: 27.65 +/-1.02 U/min); format: functional; conditions: time 15 day
Rattus norvegicus [4] = experiment: Anti-diabetic activity in fructose-treated male Wistar rat assessed as decrease in MDA level in liver at 10 mg/kg, po administered for 15 days (reference value: 294.65 +/-11.78 nM/mg ); format: functional; conditions: time 15 day
Rattus norvegicus [5] = experiment: Anti-diabetic activity in fructose-treated male Wistar rat assessed as increase in total cholesterol level at 10 mg/kg, po administered for 15 days (reference value: 93.68 +/-1.68 mg/dL); format: functional; conditions: time 15 day
Rattus norvegicus [6] = experiment: Anti-diabetic activity in fructose-treated male Wistar rat assessed as increase in LDL level at 10 mg/kg, po administered for 15 days (reference value: 40.32 +/-1.08 mg/dL); format: functional; conditions: time 15 day
Rattus norvegicus [7] = experiment: Anti-diabetic activity in fructose-treated male Wistar rat assessed as decrease in SGPT level at 10 mg/kg, po administered for 15 days (reference value: […]); format: functional; conditions: time 15 day
[8] = Retention time of the compound by HPLC analysis; format: physicochemical
L6 = experiment: Induction of glucose uptake in rat L6 cells incubated for 24 hrs by GOD-POD technique; format: functional; design: concentration or dose not given beside the values
Rattus norvegicus [9] = experiment: Anti-diabetic activity in fructose-treated male Wistar rat assessed as decrease in SGOT level at 10 mg/kg, po administered for 15 days (reference value: […]); format: functional; conditions: time 15 day
Rattus norvegicus [10] = experiment: Anti-diabetic activity in fructose-treated male Wistar rat assessed as increase in GSH level in liver at 10 mg/kg, po administered for 15 days (reference value: 39.98 +/-0.86 nM/mg ); format: functional; conditions: time 15 day
Rattus norvegicus [11] = experiment: Anti-diabetic activity in fructose-treated male Wistar rat assessed as change in HOMO-IR level at 10 mg/kg, po administered for 15 days; format: functional, organism-based; conditions: time 15.0 day
[12] = Drug recovery in rat plasma at 150 mg/kg, po by HPLC analysis; format: ADME, organism-based; conditions: in vivo
Rattus norvegicus [13] = experiment: Anti-diabetic activity in fructose-treated male Wistar rat assessed as decrease in fasting blood glucose level at 10 mg/kg, po administered for 15 days; format: functional, organism-based; conditions: time 15.0 day
[14] = Half life in male Wistar rat at 10 mg/kg, po measured upto 24 hrs; format: ADME, organism-based; conditions: in vivo
[15] = Cmax in male Wistar rat at 10 mg/kg, po measured upto 24 hrs; format: ADME, organism-based; conditions: in vivo
Rattus norvegicus [16] = experiment: Anti-diabetic activity in fructose-treated male Wistar rat assessed as decrease in HOMO-IR level at 10 mg/kg, po administered for 15 days; format: functional, organism-based; conditions: time 15.0 day
Rattus norvegicus [17] = experiment: Anti-diabetic activity in fructose-treated male Wistar rat assessed as decrease in insulin level at 10 mg/kg, po administered for 15 days by insulin tolerance test; format: functional, organism-based; conditions: time 15.0 day
[18] = Drug recovery in rat plasma at 100 mg/kg, po by HPLC analysis; format: ADME, organism-based; conditions: in vivo
Rattus norvegicus [19] = experiment: Anti-diabetic activity in fructose-treated male Wistar rat assessed as decrease in VLDL level at 10 mg/kg, po administered for 15 days (reference value: 28 +/-0.28 mg/dL); format: functional; conditions: time 15 day
Rattus norvegicus [20] = experiment: Anti-diabetic activity in fructose-treated male Wistar rat assessed as increase in glycogen content in liver at 10 mg/kg, po administered for 15 days; format: functional, organism-based; conditions: time 15.0 day
Rattus norvegicus [21] = experiment: Anti-diabetic activity in fructose-treated male Wistar rat assessed as increase in SOD level in liver at 10 mg/kg, po administered for 15 days (reference value: 13.25 +/-1.35 U/ml); format: functional; conditions: time 15 day
[22] = Acute toxicity in male Wistar rat assessed as body weight gain at 10 mg/kg, po administered for 15 days; format: organism-based; conditions: in vivo, 360 h, time 15 day
[23] = Tmax in male Wistar rat at 10 mg/kg, po measured upto 24 hrs; format: ADME, organism-based; conditions: in vivo
[24] = AUC (0 to infinity) in male Wistar rat at 10 mg/kg, po measured upto 24 hrs; format: ADME, organism-based; conditions: in vivo
Rattus norvegicus [25] = experiment: Anti-diabetic activity in fructose-treated male Wistar rat assessed as increase in glycogen content in skeletal muscle at 10 mg/kg, po administered for 15 days; format: functional, organism-based; conditions: time 15.0 day
[26] = Drug recovery in rat plasma at 50 mg/kg, po by HPLC analysis; format: ADME, organism-based; conditions: in vivo
Rattus norvegicus [27] = experiment: Anti-diabetic activity in fructose-treated male Wistar rat assessed as increase in HDL level at 10 mg/kg, po administered for 15 days (reference value: 25.35 +/-2.03 mg/dL); format: functional; conditions: time 15 day
Rattus norvegicus [28] = experiment: Anti-diabetic activity in fructose-treated male Wistar rat assessed as decrease in triglycerides level at 10 mg/kg, po administered for 15 days (reference value: 140.03 +/-3.55 mg/dL); format: functional; conditions: time 15 day

With CCc1ccc(CCOc2ccc(CC3SC(=O)NC3=O)cc2)nc1 (centres undefined) [PIOGLITAZONE] the Activity (Rattus norvegicus [1]) was “Active”, the AUC(0-t) at 24 h [2] was 41500 ng·h/mL and the Activity (Rattus norvegicus [3]) was 55.63 U/min. The Activity (Rattus norvegicus [4]) was 178.35 nM/mg, the Activity (Rattus norvegicus [5]) was 122.79 mg/dL and the Activity (Rattus norvegicus [6]) was 49.35 mg/dL. The Activity (Rattus norvegicus [7]) was 29.73 U/L, the Retention_time [8] was 2.4 min and the Activity (L6) was 82.36%. The Activity (Rattus norvegicus [9]) was 32.45 U/L, the Activity (Rattus norvegicus [10]) was 77.65 nM/mg and the Activity (Rattus norvegicus [11]) was “Active”. The Drug recovery [12] was 98%, the Activity (Rattus norvegicus [13]) was “Active” and the half-life [14] was 4.92 h. For the same compound, the Cmax [15] was 3130 ng/mL, the Activity (Rattus norvegicus [16]) was “inactive” and the Activity (Rattus norvegicus [17]) was “Active”. For the same compound, the Drug recovery [18] was 97.4%, the Activity (Rattus norvegicus [19]) was 12.7 mg/dL and the Activity (Rattus norvegicus [20]) was “Active”. The Activity (Rattus norvegicus [21]) was 27.65 U/ml, the Activity [22] was “Non-toxic” and the Tmax [23] was 2.69 h. The AUC(0-inf) [24] was 43600 ng·h/mL, the Activity (Rattus norvegicus [25]) was “Active” and the Drug recovery [26] was 97.1%. For the same compound, the Activity (Rattus norvegicus [27]) was 60.72 mg/dL and the Activity (Rattus norvegicus [28]) was 63.57 mg/dL.
